These results are taken from US20260157967A1, “METHOD FOR PREPARING MEDICINES, HAVING REDUCED PRODUCTION TIME AND IMPROVED STABILITY” (DR.INB CO., priority 2021, published 2026).

The test system of this test is cancer cells (PANC-1). Kind of test: CCK8 assay of the efficiency of killing cancer cells, with or without laser irradiation (FIG. 4). Format: cell-based. Conditions: PANC-1, FIG. 4a, docetaxel treatment at various concentrations. The method, then:
1 g of polyvinylpyrrolidone (PVP, Sigma-Aldrich) was dissolved in 20 g of ultrapure water and stirred in a mixing chamber at 1500 RPM for 30 minutes to obtain an aqueous PVP solution. Subsequently, 131.7 mg of potassium hexacyanoferrate (III) trihydrate (K3Fe(CN)6·3H2O, Sigma-Aldrich) was dissolved in 20 g of ultrapure water and mixed with the aqueous PVP solution. Then, 400 μl of 1 M HCl (Sigma-Aldrich) was added to the mixing chamber and vortexed at 60 J/s. After movement through an injection pipe, the solution thus prepared was subjected to a step of allowing gas to flow at a high speed on the inner boundary of a reaction chamber and in a liquid cutting tube at an applied voltage of 30 kV, a distance of 25 cm between the reaction chamber and the end of the injection pipe, and a temperature of 140° C. As indicated by the green arrows in FIG. 1, the gas is moved toward the upper portion of the reaction chamber through a structure in which the boundary of the reaction chamber and the liquid cutting tube are at 0.29 rad and the gap of the boundary is 900 nm. As the gas passed, the prepared solution was cut into small pieces. The cut liquid received heat in the reaction chamber and the temperature thereof rose quickly compared to bulk liquid having the same total volume (40 ml) due to heat transfer within the liquid (FIG. 3). […]
Background: Formazan colour is commonly taken as a measure of viable cells.

Consider `CC(=O)O[C@@]12CO[C@@H]1C[C@H](O)[C@@]1(C)C(=O)[C@H](O)C3=C(C)[C@@H](OC(=O)[C@H](O)[C@@H](NC(=O)OC(C)(C)C)c4ccccc4)C[C@@](O)([C@@H](OC(=O)c4ccccc4)[C@H]21)C3(C)C` [docetaxel], for which the “efficiency of killing cancer cells” value was “increased the efficiency of killing cancer cells with an increase in the treatment concentration”.
